The values that follow come from ChEMBL document CHEMBL1641570, “New hydroxystilbenoid derivatives endowed with neuroprotective activity and devoid of interference with estrogen and aryl hydrocarbon receptor-mediated transcription” (Bioorg Med Chem, 2011).

The test system of series [1] is Ishikawa. Put plainly: Cytotoxicity against human Ishikawa cells by LDH release assay. In kind it is cell-based. A general note: Release of lactate dehydrogenase indicates damage to the cell membrane.
The nature of series [2]: Antagonist activity at estrogen receptor in human Ishikawa cells assessed as inhibition of estradiol-induced alkaline phosphatase expression at 1 uM after 72 hrs relative to ICI182780. In kind it is cell-based.
The test system of series [3] is estrogen receptor. Put plainly: (§1) Agonist activity at estrogen receptor in human Ishikawa cells assessed as increase of estradiol-induced alkaline phosphatase expression at 1 uM after 72 hrs relative to estradiol. Particulars: Ishikawa cells, read-out: Activity; call rule not given here. In kind it is cell-based.
The target of series [4] is T1, Estrogen receptor beta (Homo sapiens, UniProt Q92731). Put plainly: Antagonist activity at human ERbeta receptor expressed in human HEK293 cells co-expressing ERE assessed as inhibition of estradiol-induced of luciferase gene expression at 1 uM after 18 hrs relative to ICI182780. Type of series: cell-based. The note with it: hek293, 18 h.
T1 sequence (Q92731 whole entry): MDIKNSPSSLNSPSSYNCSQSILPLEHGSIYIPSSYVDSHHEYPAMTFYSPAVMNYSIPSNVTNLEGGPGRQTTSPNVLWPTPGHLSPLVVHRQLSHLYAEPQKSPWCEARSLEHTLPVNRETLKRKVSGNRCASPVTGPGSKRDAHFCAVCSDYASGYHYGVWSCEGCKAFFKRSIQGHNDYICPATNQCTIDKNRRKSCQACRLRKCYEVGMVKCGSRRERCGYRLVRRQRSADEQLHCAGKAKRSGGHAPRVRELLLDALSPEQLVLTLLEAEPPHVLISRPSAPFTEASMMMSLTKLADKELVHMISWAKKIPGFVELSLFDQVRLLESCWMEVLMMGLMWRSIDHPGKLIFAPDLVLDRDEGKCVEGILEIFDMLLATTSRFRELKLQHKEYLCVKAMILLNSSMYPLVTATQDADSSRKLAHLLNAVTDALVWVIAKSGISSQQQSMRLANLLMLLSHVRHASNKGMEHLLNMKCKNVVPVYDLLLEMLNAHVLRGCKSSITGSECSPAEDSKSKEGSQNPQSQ
The target of series [5] is T1, Estrogen receptor beta. The series is described as follows: Agonist activity at human ERbeta receptor expressed in human HEK293 cells co-expressing ERE assessed as increase of estradiol-induced luciferase gene expression at 1 uM after 18 hrs relative to estradiol. Type of series: cell-based. The note with it: for Activity: hek293, 18 h, 1 µM; for activity at 18 h, 1 µM: read-out: Activity.

For series [6], the target named is T2, Estrogen receptor (Homo sapiens, UniProt P03372).
T2 sequence (P03372 whole entry): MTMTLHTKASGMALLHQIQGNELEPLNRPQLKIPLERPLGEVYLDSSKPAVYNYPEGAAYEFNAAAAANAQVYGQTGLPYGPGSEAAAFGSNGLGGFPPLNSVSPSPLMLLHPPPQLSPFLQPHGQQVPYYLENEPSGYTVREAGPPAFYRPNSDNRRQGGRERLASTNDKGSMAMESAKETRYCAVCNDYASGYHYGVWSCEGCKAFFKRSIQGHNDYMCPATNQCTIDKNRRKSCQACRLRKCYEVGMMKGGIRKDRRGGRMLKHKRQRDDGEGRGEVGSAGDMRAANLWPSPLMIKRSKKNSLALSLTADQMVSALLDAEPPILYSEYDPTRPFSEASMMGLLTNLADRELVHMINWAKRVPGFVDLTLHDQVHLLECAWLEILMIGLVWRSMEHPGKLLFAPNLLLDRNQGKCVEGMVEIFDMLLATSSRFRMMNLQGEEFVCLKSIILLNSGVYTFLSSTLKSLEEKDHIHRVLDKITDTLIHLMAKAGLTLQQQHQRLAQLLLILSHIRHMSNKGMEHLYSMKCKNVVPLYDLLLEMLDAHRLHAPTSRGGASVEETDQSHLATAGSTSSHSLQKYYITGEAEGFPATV
Put plainly: Antagonist activity at human ERalpha receptor expressed in human MCF7:D5L cells co-expressing ERE assessed as inhibition of estradiol-induced of luciferase gene expression at 1 uM after 18 hrs relative to ICI182780. Type of series: cell-based.

The target in series [7] is T3, estrogen receptor alpha (Homo sapiens, UniProt P03372).
T3 sequence (P03372 whole entry): T2 sequence (P03372 whole entry)
Put plainly: (§2) Partial agonist activity at human ERalpha receptor expressed in human MCF7:D5L cells co-expressing ERE assessed as increase of estradiol-induced luciferase gene expression at 1 uM after 18 hrs relative to estradiol. In kind it is cell-based. The note with it: read-out: Activity.

The subject of series [8] is HT-22. The series is described as follows: Neuroprotective activity in mouse HT22 cells assessed as protection against glutamate-induced oxytosis after 24 hrs by MTT assay. Particulars: HT-22, 24 h. In kind it is functional, cell-based. In general terms: Formazan colour is commonly taken as a measure of viable cells.
Series [9] relates to HT-22. Put plainly: Neuroprotective activity in mouse HT22 cells assessed as protection against glutamate-induced oxytosis after 24 hrs by MTT assay relative to resveratrol. Type of series: functional.
A short description of series [10]: Cytotoxicity against mouse HT22 cells assessed as cell viability at 1 uM after 3 days by LDH release assay relative to control. Type of series: cell-based, HT-22. The note with it: read-out: Activity.
The target in series [11] is Aryl hydrocarbon receptor (Mus musculus) (UniProt P30561). Put plainly: Activity at AhR expressed in mouse H1L1.1c2 cells co-expressing XRE assessed as increase of benzo[b]fluoranthene-induced luciferase gene expression at 1 uM after 72 hrs.
Sequence of Aryl hydrocarbon receptor (Mus musculus) (P30561 whole entry, looked up): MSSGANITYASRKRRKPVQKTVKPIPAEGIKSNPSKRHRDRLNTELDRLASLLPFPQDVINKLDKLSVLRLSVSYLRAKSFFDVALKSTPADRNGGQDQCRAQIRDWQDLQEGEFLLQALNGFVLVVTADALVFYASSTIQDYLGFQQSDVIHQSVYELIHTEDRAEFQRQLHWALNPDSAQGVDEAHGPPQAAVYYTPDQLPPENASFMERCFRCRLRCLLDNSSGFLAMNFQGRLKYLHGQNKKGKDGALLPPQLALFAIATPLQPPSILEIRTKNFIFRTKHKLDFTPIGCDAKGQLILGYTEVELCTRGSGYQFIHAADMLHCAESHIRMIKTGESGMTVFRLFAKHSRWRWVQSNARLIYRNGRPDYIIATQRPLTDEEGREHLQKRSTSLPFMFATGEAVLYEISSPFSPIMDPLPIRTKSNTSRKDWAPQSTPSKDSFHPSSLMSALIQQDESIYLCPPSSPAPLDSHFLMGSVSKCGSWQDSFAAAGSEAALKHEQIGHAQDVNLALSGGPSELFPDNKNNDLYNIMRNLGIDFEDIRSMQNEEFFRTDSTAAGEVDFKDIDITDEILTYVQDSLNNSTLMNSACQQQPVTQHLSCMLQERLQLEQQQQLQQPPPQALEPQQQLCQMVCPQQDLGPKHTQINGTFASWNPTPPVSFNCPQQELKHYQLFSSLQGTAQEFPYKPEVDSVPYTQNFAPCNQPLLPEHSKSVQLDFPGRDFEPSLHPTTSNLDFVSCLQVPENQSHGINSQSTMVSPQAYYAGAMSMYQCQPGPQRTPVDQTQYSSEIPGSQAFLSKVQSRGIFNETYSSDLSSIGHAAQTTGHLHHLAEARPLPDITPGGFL
The nature of series [12]: as §1. In kind it is cell-based. Particulars: ishikawa, 72 h, 1 µM.
The target in series [13] is T2, Estrogen receptor. The description is as §2. In kind it is cell-based. Particulars: 18 h, 1 µM.
The test system of series [14] is MCF7. The series is described as follows: Antiproliferative activity against human stradiol-stimulated MCF7 cells at 1 uM after 96 hrs by MTT assay. In kind it is cell-based. The note with it: mcf7, 96 h.
The target of series [15] is Aryl hydrocarbon receptor (Mus musculus) (UniProt P30561). Put plainly: Activity at AhR expressed in mouse H1L1.1c2 cells co-expressing XRE assessed as induction luciferase gene expression at 10 nM after 72 hrs.

For orientation: EC50 means the concentration that produces a half-maximal response. Turning to `CCC(CC)c1cc(/C=C/c2cc(O)cc(O)c2)ccc1O`, the Activity entry in series [1] is “Non-toxic”; in [2] it was “Not Active”; in series [4] it was “Not Active”; in series [5], “Not Active”; in [6], “Not Active”; in series [11] it was 1.7%. Further, the activity at 72 h, 1 µM in [3] is 38%. In addition, in [7], the activity at 18 h, 1 µM amounted to 65%. Also, in [8], the EC50 is 432 nM. Besides, the “Ratio EC50” value in series [9] was found to be 11. In addition, the percent cytotoxicity (LDH release relative to control) at 72 h, 1 µM in [10] is -1%.

`CC(C)(C)c1cc(/C=C/c2cc(O)cc(O)c2)ccc1O`: the Activity entry in series [1] is on record as “Non-toxic”; in series [2], “Not Active”; in [12], “Not Active”; in series [4], “Not Active”; in [5], “Not Active”; in series [6], “Not Active”. The Activity entry in series [13] is given as “Not Active”; in [11], 1.5%. In series [8], the EC50 is 484 nM. In addition, in [9], the “Ratio EC50” value is 9.6. In addition, in series [10], the percent cytotoxicity (LDH release relative to control) at 72 h, 1 µM is -6%.

For `CC(C)(C)c1cc(/C=C/c2cc(O)cc(O)c2)cc(C(C)(C)C)c1O`, the Activity result in [1] is “Non-toxic”; in series [2], “Not Active”; in series [12], “Not Active”; in series [4] it was “Not Active”; in [5], “Not Active”; in series [6] it was “Not Active”. For the same compound, the figures for the Activity entry in [13], in series [14] and in series [11] were “Not Active”, “Non-toxic” and 1.5%, respectively. In addition, the EC50 in series [8] amounted to 45 nM. Further, the “Ratio EC50” value in series [9] stood at 104. In addition, the percent cytotoxicity (LDH release relative to control) at 72 h, 1 µM in [10] is -6.7%.

Consider `CCC(CC)c1cc(/C=C/C=C/c2cc(O)cc(O)c2)ccc1O`, for which the Activity entry is on record as “Non-toxic” in series [1]; “Not Active” in series [2]; “Not Active” in [4]; “Not Active” in series [5]; “Not Active” in series [6]; 1.7% in series [11]. Moreover, in series [3], the activity at 72 h, 1 µM came to 21%. The activity at 18 h, 1 µM in series [7] came to 37%. In addition, the 50% effective concentration (EC50) in series [8] was 79 nM. Also, in [9], the “Ratio EC50” value is on record as 59. Moreover, in series [10], the percent cytotoxicity (LDH release relative to control) at 72 h, 1 µM is -5%.

Regarding `CCC(CC)c1cc(/C=C/C=C/c2cc(O)cc(O)c2)cc(C(CC)CC)c1O`, the Activity entry is recorded as “Non-toxic” in [1]; “Not Active” in [2]; “Not Active” in [12]; “Not Active” in series [4]; “Not Active” in series [5]; “Not Active” in [6]. Moreover, the Activity entry in series [13] is “Not Active”; in [14], “Non-toxic”; in series [11] it was 2.2%. The EC50 in series [8] came to 12 nM. Besides, in series [9], the “Ratio EC50” value was 389. The percent cytotoxicity (LDH release relative to control) at 72 h, 1 µM in [10] was -6%.

Regarding `CC(C)(C)c1cc(/C=C/C=C/c2cc(O)cc(O)c2)ccc1O`, the Activity result was “Non-toxic” in series [1]; “Not Active” in series [2]; “Not Active” in [12]; “Not Active” in [4]; “Not Active” in [6]; 1.6% in [11]. The activity at 18 h, 1 µM in series [5] was 18%; in [7], 34%. Besides, the EC50 in series [8] came out at 91 nM. Moreover, the “Ratio EC50” value in series [9] came out at 51. In series [10], the percent cytotoxicity (LDH release relative to control) at 72 h, 1 µM is -8.7%.

As for `CC(C)(C)c1cc(/C=C/C=C/c2cc(O)cc(O)c2)cc(C(C)(C)C)c1O`, the Activity entry in series [1] was “Non-toxic”; in [2] it was “Not Active”; in series [12] it was “Not Active”; in series [4] it was “Not Active”; in series [5], “Not Active”; in [6], “Not Active”. For the same compound, the Activity result in [13] is on record as “Not Active”; in series [11], 1.6%. Also, in series [8], the EC50 amounted to 119 nM. In series [9], the “Ratio EC50” value is listed as 39. Further, the percent cytotoxicity (LDH release relative to control) at 72 h, 1 µM in series [10] was -5.3%.

In the case of `CC(C)(C)c1cc(/C=C/c2ccc(O)cc2)ccc1O`, the Activity result in series [1] is listed as “Non-toxic”; in series [2] it was “Not Active”; in [4], “Not Active”; in [6] it was “Not Active”; in [11], 1.5%. The activity at 72 h, 1 µM in series [3] came out at 25%. Moreover, the activity at 18 h, 1 µM is 19% in series [5] and 49% in series [7]. Besides, the EC50 in series [8] was 1060 nM. Besides, the “Ratio EC50” value in series [9] is 4.4. For the same compound, the percent cytotoxicity (LDH release relative to control) at 72 h, 1 µM in series [10] was -5.3%.

As to `CC(C)(C)c1cc(/C=C/c2cc(C(C)(C)C)c(O)c(C(C)(C)C)c2)cc(C(C)(C)C)c1O`, the Activity result in [1] is recorded as “Non-toxic”; in [2] it was “Not Active”; in series [12], “Not Active”; in series [4], “Not Active”; in [5], “Not Active”; in [6], “Not Active”. Besides, the values for the Activity entry in [13] and in series [11] were “Not Active” and 1.4%, respectively. The EC50 in [8] was determined as 399 nM. The “Ratio EC50” value in [9] came out at 12. Also, in [10], the percent cytotoxicity (LDH release relative to control) at 72 h, 1 µM is 1.3%.

Take `COc1c(C(C)(C)C)cc(/C=C/c2cc(O)cc(O)c2)cc1C(C)(C)C`: the EC50 in series [8] was determined as 621 nM. For the same compound, the “Ratio EC50” value in [9] amounted to 7.5.

Consider `COc1c(C(C)(C)C)cc(/C=C/C=C/c2cc(O)cc(O)c2)cc1C(C)(C)C`, for which the EC50 in series [8] is 410 nM. Moreover, in series [9], the “Ratio EC50” value turned out to be 11.

On to `COc1cc(O)cc(/C=C/c2cc(C(C)(C)C)c(O)c(C(C)(C)C)c2)c1`, for which the EC50 in [8] stood at 258 nM. The “Ratio EC50” value in [9] stood at 18.

For the compound `COc1c(C(C)(C)C)cc(/C=C/c2cc(C(C)(C)C)c(O)c(C(C)(C)C)c2)cc1C(C)(C)C`, in series [8], the EC50 is greater than 10000 nM. The “Ratio EC50” value in series [9] is less than 1.

Consider `c1ccc2c(c1)-c1cccc3c1c-2cc1ccccc13` [BENZO[B]FLUORANTHENE], for which the Activity in [15] is 13.1%.

For `Oc1ccc(/C=C/c2cc(O)cc(O)c2)cc1` [RESVERATROL], the Activity entry in series [1] is on record as “Non-toxic”; in series [2] it was “Not Active”; in series [12], “Not Active”; in series [13] it was “Not Active”; in series [11], 1.2%. Also, in series [8], the EC50 turned out to be 4670 nM. For the same compound, in [10], the percent cytotoxicity (LDH release relative to control) at 72 h, 1 µM was determined as 4%.
